Assays:
[1] = test system: ABUTH (Velvetleaf); assay: Postemergence herbicidal evaluation; type: in vivo, Abutilon theophrasti; details: postemergence
In short: (§1)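 Rate range approx. 0.0156–0.500 kg/ha. Foliar application at 40 psi to ~2-week seedlings; surfactant 0.5% TWEEN 20 in 50/50 acetone/water. Evaluation 4–5 wk post-treatment by 0–9 visual injury score, means of replicate tests.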

[2] = test system: CHEAL (Lambsquarters, Common); assay: Postemergence herbicidal evaluation; type: in vivo, Chenopodium album; details: postemergence
In short: as §1

[3] = test system: IPOHE (Morningglory, Ivyleaf); assay: Postemergence herbicidal evaluation; type: in vivo, Ipomoea hederacea; details: postemergence
In short: as §1

[4] = test system: ECHCG (Barnyardgrass); assay: Postemergence herbicidal evaluation; type: in vivo, Echinochloa crus-galli; details: postemergence
In short: as §1

[5] = test system: SETVI (Foxtail, Green); assay: Postemergence herbicidal evaluation; type: in vivo, Setaria viridis; details: postemergence
In short: as §1

[6] = test system: ORYSAT (Rice, Tebonnet); assay: Postemergence herbicidal evaluation; type: in vivo, Oryza sativa, (L.) Tebonnet; details: postemergence
In short: as §1

[7] = test system: ZEAMX (Corn, Field); assay: Postemergence herbicidal evaluation; type: in vivo, Zea mays; details: postemergence
In short: as §1

[8] = test system: ABUTH (Velvetleaf); assay: Preemergence herbicidal evaluation; type: in vivo, Abutilon theophrasti; details: rated 4-5 weeks after treatment
In short: (§2)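 Rating at 4–5 wk post-spray on a 0–9 visual scale vs control. Application: aqueous acetone, ~0.0156–0.500 kg/ha, to soil surface after seeding, preemergence.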

[9] = test system: CASOB (Sicklepod); assay: Preemergence herbicidal evaluation; type: in vivo, Cassia obtusifolia; details: rated 4-5 weeks after treatment
In short: as §2

[10] = test system: CHEAL (Lambsquarters, Common); assay: Preemergence herbicidal evaluation; type: in vivo, Chenopodium album; details: rated 4-5 weeks after treatment
In short: as §2

[11] = test system: IPOHE (Morningglory, Ivyleaf); assay: Preemergence herbicidal evaluation; type: in vivo, Ipomoea hederacea; details: rated 4-5 weeks after treatment
In short: as §2

[12] = test system: ECHCG (Barnyardgrass); assay: Preemergence herbicidal evaluation; type: in vivo, Echinochloa crus-galli; details: rated 4-5 weeks after treatment
In short: as §2

[13] = test system: GLXMAW (Soybean, Williams); assay: Preemergence herbicidal evaluation; type: in vivo, Glycine max, (L.) Merr. cv Williams; details: rated 4-5 weeks after treatment
In short: as §2

[14] = test system: TRZAWR (Wheat, Winter, cv Riband); assay: Preemergence herbicidal evaluation; type: in vivo, Triticum aestivum; details: rated 4-5 weeks after treatment
In short: as §2

[15] = test system: ZEAMX (Corn, Field); assay: Preemergence herbicidal evaluation; type: in vivo, Zea mays; details: rated 4-5 weeks after treatment
In short: as §2

[16] = test system: CYPIR (Rice Flatsedge); assay: Postemergence weed control under flooded paddy conditions; type: in vivo, Cyperus iria; details: postemergence weeds, rated 3 to 4 weeks after treatment
In short: (§3)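 Weeds 3 to 5 cm tall and rice seedlings at the 1.5 to 2.5 leaf stage were flooded, with water held 1.5 to 3 cm above the soil. Compounds in 50/50 v/v aqueous/acetone went into the flood water at about 0.0313 to 0.500 kg/ha. Visual 0-9 ratings versus control were made 3 to 4 weeks later.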

[17] = test system: CYPSE (Flatsedge); assay: as above; type: in vivo, Cyperus serotinus; details: postemergence weeds, rated 3 to 4 weeks after treatment
In short: as §3

C=CCN1C(=O)C(CC(=O)OC(C)C)SC1=Nc1cc(-n2c(=O)cc(C(F)(F)F)n(C)c2=O)c(F)cc1Cl (stereo not drawn) [Compound 66, Isopropyl 3-allyl-2-{{2-chloro-5-[3,6-dihydro-3-methyl-2,6-dioxo-4-(trifluoromethyl)-1(2H)-pyrimidinyl]-4-fluorophenyl}imino}-4-oxo-5-thiazolidineacetate]
ABUTH herbicidal rating ([1]; rate 0.0158 kg/ha): 9.0 | ABUTH herbicidal rating ([1]; rate 0.0313 kg/ha): 9.0 | ABUTH herbicidal rating ([1]; rate 0.0625 kg/ha): 9.0 | ABUTH herbicidal rating ([1]; rate 0.1250 kg/ha): 9.0 | CHEAL herbicidal rating ([2]; rate 0.0158 kg/ha): 5.0 | CHEAL herbicidal rating ([2]; rate 0.0313 kg/ha): 9.0 | CHEAL herbicidal rating ([2]; rate 0.0625 kg/ha): 9.0 | CHEAL herbicidal rating ([2]; rate 0.1250 kg/ha): 9.0 | IPOHE herbicidal rating ([3]; rate 0.0158 kg/ha): 9.0 | IPOHE herbicidal rating ([3]; rate 0.0313 kg/ha): 9.0 | IPOHE herbicidal rating ([3]; rate 0.0625 kg/ha): 9.0 | IPOHE herbicidal rating ([3]; rate 0.1250 kg/ha): 9.0 | ECHCG herbicidal rating ([4]; rate 0.0158 kg/ha): 2.0 | ECHCG herbicidal rating ([4]; rate 0.0313 kg/ha): 9.0 | ECHCG herbicidal rating ([4]; rate 0.0625 kg/ha): 9.0 | ECHCG herbicidal rating ([4]; rate 0.1250 kg/ha): 9.0 | SETVI herbicidal rating ([5]; rate 0.0158 kg/ha): 2.0 | SETVI herbicidal rating ([5]; rate 0.0313 kg/ha): 9.0 | SETVI herbicidal rating ([5]; rate 0.0625 kg/ha): 9.0 | SETVI herbicidal rating ([5]; rate 0.1250 kg/ha): 9.0 | ORYSAT herbicidal rating ([6]; rate 0.0158 kg/ha): 3.5 | ORYSAT herbicidal rating ([6]; rate 0.0313 kg/ha): 5.0 | ORYSAT herbicidal rating ([6]; rate 0.0625 kg/ha): 5.5 | ORYSAT herbicidal rating ([6]; rate 0.1250 kg/ha): 5.5 | ZEAMX herbicidal rating ([7]; rate 0.0158 kg/ha): 7.0 | ZEAMX herbicidal rating ([7]; rate 0.0313 kg/ha): 8.5 | ZEAMX herbicidal rating ([7]; rate 0.0625 kg/ha): 9.0 | ZEAMX herbicidal rating ([7]; rate 0.1250 kg/ha): 9.0 | Preemergence herbicidal rating ABUTH ([8]; rate 0.0156 kg/ha): 5.0 | Preemergence herbicidal rating ABUTH ([8]; rate 0.0313 kg/ha): 8.0 | Preemergence herbicidal rating ABUTH ([8]; rate 0.0625 kg/ha): 9.0 | Preemergence herbicidal rating ABUTH ([8]; rate 0.1250 kg/ha): 9.0 | Preemergence herbicidal rating ABUTH ([8]; rate 0.2500 kg/ha): 9.0 | Preemergence herbicidal rating ABUTH ([8]; rate 0.5000 kg/ha): 9.0 | Preemergence herbicidal rating CASOB ([9]; rate 0.0156 kg/ha): 0.0 | Preemergence herbicidal rating CASOB ([9]; rate 0.0313 kg/ha): 0.0 | Preemergence herbicidal rating CASOB ([9]; rate 0.0625 kg/ha): 0.0 | Preemergence herbicidal rating CASOB ([9]; rate 0.1250 kg/ha): 0.5 | Preemergence herbicidal rating CASOB ([9]; rate 0.2500 kg/ha): 0.5 | Preemergence herbicidal rating CASOB ([9]; rate 0.5000 kg/ha): 3.0 | Preemergence herbicidal rating CHEAL ([10]; rate 0.0156 kg/ha): 4.0 | Preemergence herbicidal rating CHEAL ([10]; rate 0.0313 kg/ha): 9.0 | Preemergence herbicidal rating CHEAL ([10]; rate 0.0625 kg/ha): 9.0 | Preemergence herbicidal rating CHEAL ([10]; rate 0.1250 kg/ha): 9.0 | Preemergence herbicidal rating CHEAL ([10]; rate 0.2500 kg/ha): 9.0 | Preemergence herbicidal rating CHEAL ([10]; rate 0.5000 kg/ha): 9.0 | Preemergence herbicidal rating IPOHE ([11]; rate 0.0156 kg/ha): 0.0 | Preemergence herbicidal rating IPOHE ([11]; rate 0.0313 kg/ha): 0.0 | Preemergence herbicidal rating IPOHE ([11]; rate 0.0625 kg/ha): 0.5 | Preemergence herbicidal rating IPOHE ([11]; rate 0.1250 kg/ha): 3.0 | Preemergence herbicidal rating IPOHE ([11]; rate 0.2500 kg/ha): 6.0 | Preemergence herbicidal rating IPOHE ([11]; rate 0.5000 kg/ha): 9.0 | Preemergence herbicidal rating ECHCG ([12]; rate 0.0156 kg/ha): 0.0 | Preemergence herbicidal rating ECHCG ([12]; rate 0.0313 kg/ha): 0.0 | Preemergence herbicidal rating ECHCG ([12]; rate 0.0625 kg/ha): 0.5 | Preemergence herbicidal rating ECHCG ([12]; rate 0.1250 kg/ha): 0.5 | Preemergence herbicidal rating ECHCG ([12]; rate 0.2500 kg/ha): 3.0 | Preemergence herbicidal rating ECHCG ([12]; rate 0.5000 kg/ha): 9.0 | Preemergence herbicidal rating GLXMAW ([13]; rate 0.0156 kg/ha): 0.0 | Preemergence herbicidal rating GLXMAW ([13]; rate 0.0313 kg/ha): 0.0 | Preemergence herbicidal rating GLXMAW ([13]; rate 0.0625 kg/ha): 0.5 | Preemergence herbicidal rating GLXMAW ([13]; rate 0.1250 kg/ha): 0.5 | Preemergence herbicidal rating GLXMAW ([13]; rate 0.2500 kg/ha): 4.5 | Preemergence herbicidal rating GLXMAW ([13]; rate 0.5000 kg/ha): 9.0 | Preemergence herbicidal rating TRZAWR ([14]; rate 0.0156 kg/ha): 0.0 | Preemergence herbicidal rating TRZAWR ([14]; rate 0.0313 kg/ha): 0.0 | Preemergence herbicidal rating TRZAWR ([14]; rate 0.0625 kg/ha): 0.5 | Preemergence herbicidal rating TRZAWR ([14]; rate 0.1250 kg/ha): 0.5 | Preemergence herbicidal rating TRZAWR ([14]; rate 0.2500 kg/ha): 1.0 | Preemergence herbicidal rating TRZAWR ([14]; rate 0.5000 kg/ha): 4.0 | Preemergence herbicidal rating ZEAMX ([15]; rate 0.0156 kg/ha): 0.5 | Preemergence herbicidal rating ZEAMX ([15]; rate 0.0313 kg/ha): 0.0 | Preemergence herbicidal rating ZEAMX ([15]; rate 0.0625 kg/ha): 0.5 | Preemergence herbicidal rating ZEAMX ([15]; rate 0.1250 kg/ha): 1.0 | Preemergence herbicidal rating ZEAMX ([15]; rate 0.2500 kg/ha): 2.5 | Preemergence herbicidal rating ZEAMX ([15]; rate 0.5000 kg/ha): 7.0 | Herbicidal rating CYPIR ([16]; Rate 0.0313 kg/ha): 6.0 | Herbicidal rating CYPIR ([16]; Rate 0.0625 kg/ha): 6.0 | Herbicidal rating CYPIR ([16]; Rate 0.1250 kg/ha): 7.0 | Herbicidal rating CYPIR ([16]; Rate 0.2500 kg/ha): 7.0 | Herbicidal rating CYPSE ([17]; Rate 0.0313 kg/ha): 0.0 | Herbicidal rating CYPSE ([17]; Rate 0.0625 kg/ha): 0.0 | Herbicidal rating CYPSE ([17]; Rate 0.1250 kg/ha): 4.0 | Herbicidal rating CYPSE ([17]; Rate 0.2500 kg/ha): 4.0

Source: patent publication US20020137929A1, “1 - (3-heterocyclylphenyl) isothiourea, -isourea, -guanidine and -amidine herbicidal agents” (Intellectual Property Department, BASF Aktiengesellschaft, priority 1998, published 2002)
